Measured values taken from patent US20080233251A1, “Method and Apparatus for Sterilizing Containers” (priority 2005, published 2008).
“And” between values parts separate entries of the source, which are not always exact repeats. Identical values can stand only once. Like-named read-outs stand apart in the source and are kept apart here.

Assays:
Type in all cases: cell-based
[1] = tested on: B. subtilis var. globigii (ATCC 9372); settings: surviving count per replicate strip (replicates 1-5), 50° C., inoculum 10^6
Source text: (§1) The following examples illustrate the efficacy of the method of the present invention. The experiments were designed to identify the conditions optimal for polymer sterilization and also explore the boundary areas to determine the conditions limiting the efficacy of the treatment. Each polymer strip was inoculated by drop spotting approximately 100 micro-liters and coating the surface by swabbing the surface of the polyethylene strip. The culture was allowed to dry before sterilization. Each strip of polyethylene was treated by vigorously agitating the strip in the appropriate treatment solutions. Each treated polymer strip was then treated with catalase to inactivate residual peroxide, swabbed and plated using TGE incubated at 35° C. for two days.
In Table One, a NaOH control, an inoculated untreated control, and two methods of the present invention were measured and the results set forth in Table 1. Five replicate polymer strips were used for each of the two methods of the present invention. A log measurement value is provided below each of the non-log values. The first method uses hydrogen peroxide first and then an alkaline solution of sodium hydroxide. The second method uses an alkaline solution of sodium hydroxide first and then hydrogen peroxide. The sterilization was conducted at 50° C.

[2] = tested on: B. subtilis var. globigii (ATCC 9372); settings: for bactericidal effect (in words): text on Table Two; for Average: average of the logCFU/Swab replicates; for logCFU/Swab: log of surviving count per replicate (1-5); for logCFU/Swab / CFU/Swab: unagitated; for CFU/Swab: surviving count per replicate (1-5), contact times in label
Protocol: as §1, with “The” for “The following examples illustrate the efficacy of the method of the present invention. The”
A log measurement value is provided below each of the non-log values. The sterilization was conducted at 50° C.

[3] = tested on: B. subtilis var. globigii (ATCC 9372); settings: 35° C., 30 seconds; for CFU/Swab: surviving count per replicate (1-5)
Protocol: as §1, with “The” for “The following examples illustrate the efficacy of the method of the present invention. The”
In Table Three, a solution of 0.1 Normal potassium hydroxide (KOH) was utilized with a solution of 3% hydrogen peroxide at a temperature of 35° C. for 30 seconds.

Row | Molecule | bactericidal effect (in words) ([2]; 50° C.) | Average [2] | logCFU/Swab ([2]; 50° C.) | CFU/Swab ([2]; 50° C.) | CFU/Swab [3] | further results
1 | [Na+].[OH-] [1M NaOH Control, sodium hydroxide] | – | – | – | – | – | CFU/Swab [1]: 5,700 CFU/Swab and 210 CFU/Swab
2 | [Na+].[OH-] [50° C. 10 s 0.25M NaOH Control, sodium hydroxide] | no bacteriocidal effect | 6.75 | 6.80 logCFU/Swab and 6.90 logCFU/Swab | 6,300,000 CFU/Swab and 3,800,000 CFU/Swab and 7,900,000 CFU/Swab and 5,400,000 CFU/Swab | – | –
3 | OO [50° C. 30 s 3.5% H2O2 10 s catalase, hydrogen peroxide] | no effect | 6.52 | 6.20 logCFU/Swab and 6.60 logCFU/Swab and 6.70 logCFU/Swab | 1,600,000 CFU/Swab and 4,200,000 CFU/Swab and 4,000,000 CFU/Swab and 3,000,000 CFU/Swab and 5,000,000 CFU/Swab | – | Log reduction ([2]; versus inoculated untreated control (average 6.66)): 0.14
4 | OO [50° C. 30 s 35% H2O2 10 s catalase, hydrogen peroxide] | – | 2.30 | 1.60 logCFU/Swab and 1.30 logCFU/Swab | 40 CFU/Swab and 570 CFU/Swab and 20 CFU/Swab and 270 CFU/Swab and 2700 CFU/Swab | – | log inactivation per 10 seconds of treatment ([2]; rate of kill per unit time, 50° C.): 1.45 log per 10 seconds
5 | OO [H2O2 Control, hydrogen peroxide] | – | – | – | – | 5,200,000 CFU/Swab | –
6 | catalase [Catalase Control] | – | – | – | – | 2,500,000 CFU/Swab | logCFU/Swab ([3]; log of surviving count per replicate (1-5)): 6.40 logCFU/Swab
